# Values of other authors as cited in patent US20240374519A1, “COMPOSITIONS FOR SUPPLEMENTING PRODUCTS WITH THERAPEUTIC AGENTS AND METHODS OF USE THEREOF” (DISRUPTION LABS, INC., priority 2021, published 2024).
smiles,measurement,value
C=C(C)[C@@H]1CCC(C)=C[C@H]1c1c(O)cc(CCCCC)cc1O [Cannabidiol],log P,> 5
